pIC50: −log10 of the molar value. Where two headings read alike, the source gives them in different places. Where a SMILES comes first, the peptide text is derived from it. Bridges are numbered along the chain shown (N, C = ends). [ ]: non-standard residue; d: D form. The star is where a group is joined. DOTA = O=C(O)CN1CCN(CC(=O)O)CCN(CC(=O)*)CCN(CC(=O)O)CC1; Phe(4-SO3H) = N[C@@H](Cc1ccc(S(=O)(=O)O)cc1)C(=O)O; Propanoyl(3-NMe2) = CN(C)CCC(=O)*; Hyp = O=C(O)[C@@H]1C[C@@H](O)CN1; 3Pal = N[C@@H](Cc1cccnc1)C(=O)O; Pentanoyl(4-Me) = CC(C)CCC(=O)*; Cit = NC(=O)NCCC[C@H](N)C(=O)O; Pip = O=C(O)[C@@H]1CCCCN1; Nle = CCCC[C@H](N)C(=O)O; Thz = O=C(O)[C@@H]1CSCN1; Nva = CCC[C@H](N)C(=O)O; Deg = CCC(N)(CC)C(=O)O; Pentanoyl = CCCCC(=O)*; Aib = CC(C)(N)C(=O)O; NEtG = CCNCC(=O)O
Key:
[1] = target: T1, uPAR-expressing HEC-265 human endometrial adenocarcinoma cells (Homo sapiens, UniProt Q03405); assay: Competitive FACS binding assay; details: pIC50 category of FACS binding
T1 construct: Cell surface uPAR-expressing HEC-265 human endometrial adenocarcinoma cells; host or cells: HEC-265
How it was run: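 HEC-265 cells incubated 1 h at 4 °C with 10 nM biotinylated uPAR peptide tracer plus increasing test compound, then stained with APC-streptavidin on ice. Median APC fluorescence by flow cytometry; 4PL fit gives pIC50.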

human uPAR (uPAR-Fc) = target: T2, human uPAR (uPAR-Fc) (Homo sapiens, UniProt Q03405); assay: Surface plasmon resonance (SPR) assay, single cycle kinetics; type: binding; details: pKD category for uPAR SPR activity assay, uPAR-Fc on Protein A-Chip, 25°C, read-out: pKD CAT (converted)
T2 construct: comprising amino acids Leu23-Arg303 according to UniProt entry Q03405.1; purchased R&D Systems 10378-UK-100
How it was run: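 uPAR-Fc (Leu23-Arg303 extracellular domains, human IgG1 Fc) captured on Protein A chip to ~2000 RU; single-cycle kinetics at 25°C in HEPES running buffer pH 7.4 with 0.1% DMSO. KD from double-referenced sensorgrams fitted to 1:1 Langmuir model, reported as pKD.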

T1 sequence (Q03405 23-335): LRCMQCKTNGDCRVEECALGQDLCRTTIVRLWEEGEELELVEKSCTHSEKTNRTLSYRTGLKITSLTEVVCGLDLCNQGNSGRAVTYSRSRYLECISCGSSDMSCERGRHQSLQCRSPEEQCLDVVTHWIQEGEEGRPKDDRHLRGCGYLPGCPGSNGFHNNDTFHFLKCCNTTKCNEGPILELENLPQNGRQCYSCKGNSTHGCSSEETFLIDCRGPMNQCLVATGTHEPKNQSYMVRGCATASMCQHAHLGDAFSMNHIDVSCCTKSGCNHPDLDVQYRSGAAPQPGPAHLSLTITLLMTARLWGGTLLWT
T2 sequence (Q03405 23-303): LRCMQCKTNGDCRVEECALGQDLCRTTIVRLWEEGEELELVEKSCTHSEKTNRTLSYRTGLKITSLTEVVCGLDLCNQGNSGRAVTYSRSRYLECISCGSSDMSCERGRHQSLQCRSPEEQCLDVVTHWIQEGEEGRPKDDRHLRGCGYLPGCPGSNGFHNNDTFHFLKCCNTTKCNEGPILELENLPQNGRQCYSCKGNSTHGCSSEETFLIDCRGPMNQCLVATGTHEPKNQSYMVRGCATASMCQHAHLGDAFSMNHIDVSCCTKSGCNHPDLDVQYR

| Structure (SMILES) | pIC50 [1] | Kd (human uPAR (uPAR-Fc); single cycle kinetics) | Kd (human uPAR (uPAR-Fc)) |
| --- | --- | --- | --- |
| CC[C@H](C)[C@@H]1NC(=O)[C@@H](C)NC(=O)[C@@H]2CCCN2C(=O)[C@H](Cc2ccccc2)NC(=O)[C@H](Cc2cccnc2)NC(=O)[C@H](CCC(N)=O)NC(=O)[C@H](CCCNC(N)=O)NC(=O)[C@@H](NC(=O)CCC(C)C)CSSC[C@@H](C(N)=O)NC(=O)[C@H](CC(C)C)NC1=O [UPAR-393, iHex-[Cys-Cit-Gln-Mpa-Phe-Pro-ala-Ile-Leu-Cys]-NH2] ({Pentanoyl(4-Me)}-C[Cit]Q[3Pal]FP[dA]ILC-NH2; disulfide 1-10) | ≥ 8.00 | < 1.58 nM |  |
| CCCCC(=O)N[C@H]1CSSC[C@@H](C(N)=O)NC(=O)[C@H](CCC)NC(=O)C(CC)(CC)NC(=O)[C@@H]2C[C@@H](O)CN2C(=O)[C@@H]2CCCN2C(=O)[C@H](Cc2ccccc2)NC(=O)[C@H](Cc2ccc(O)cc2)NC(=O)[C@H](CCC(N)=O)NC(=O)[C@H](CCCNC(=N)N)NC1=O [UPAR-179, Pent-[Cys-Arg-Gln-Tyr-Phe-Pro-Hyp-Deg-Nva-Cys]-NH2] (Pentanoyl-CRQYFP[Hyp][Deg][Nva]C-NH2; disulfide 1-10) | ≤ 6.90 |  | > 100 nM |
| CC[C@H](C)[C@@H]1NC(=O)[C@@H](C)NC(=O)[C@@H]2CCCN2C(=O)[C@H](Cc2ccccc2)NC(=O)[C@H](Cc2ccc(O)cc2)NC(=O)[C@H](CCC(N)=O)NC(=O)[C@H](CCCNC(N)=O)NC(=O)[C@@H](NC(=O)CCN(C)C)CSSC[C@@H](C(N)=O)NC(=O)[C@H](CC(C)C)NC1=O [UPAR-333, Dmba-[Cys-Cit-Gln-Tyr-Phe-Pro-ala-Ile-Leu-Cys]-NH2] ({Propanoyl(3-NMe2)}-C[Cit]QYFP[dA]ILC-NH2; disulfide 1-10) | 7.00 to 7.40 |  | > 100 nM |
| CCCCC(=O)N[C@H]1CSSC[C@@H](C(N)=O)NC(=O)[C@H](CCC)NC(=O)[C@H]([C@@H](C)CC)NC(=O)[C@@H]2C[C@@H](O)CN2C(=O)[C@@H]2CCCN2C(=O)[C@H](Cc2ccccc2)NC(=O)[C@H](Cc2ccc(O)cc2)NC(=O)[C@H](CCC(N)=O)NC(=O)[C@H](Cc2ccc(O)cc2)NC1=O [UPAR-454, Pent-[Cys-Tyr-Gln-Tyr-Phe-Pro-Hyp-Ile-Nva-Cys]-NH2] (Pentanoyl-CYQYFP[Hyp]I[Nva]C-NH2; disulfide 1-10) | ≥ 8.00 | < 1.58 nM |  |
| CC[C@H](C)[C@@H]1NC(=O)[C@@H](C)NC(=O)[C@@H]2CCCN2C(=O)[C@H](Cc2ccccc2)NC(=O)[C@H](Cc2ccc(O)cc2)NC(=O)[C@H](CCCCNC(C)=O)NC(=O)[C@H](CCCNC(N)=O)NC(=O)[C@@H](NC(=O)CCC(C)C)CSSC[C@@H](C(N)=O)NC(=O)[C@H](CC(C)C)NC1=O [UPAR-413, iHex-[Cys-Cit-Lys(Ac)-Tyr-Phe-Pro-ala-Ile-Leu-Cys]-NH2] ({Pentanoyl(4-Me)}-C[Cit]K(Ac)YFP[dA]ILC-NH2; disulfide 1-10) | ≥ 8.00 | < 1.58 nM |  |
| CCCC[C@@H]1NC(=O)[C@H](CCC(=O)O)NC(=O)[C@@H](NC(=O)[C@H](CC(C)C)NC(=O)[C@H](CC(=O)O)NC(C)=O)CSSC[C@@H](C(N)=O)NC(=O)[C@H](CC(C)C)NC(=O)[C@H]([C@@H](C)CC)NC(=O)[C@H](C)NC(=O)[C@@H]2CCCN2C(=O)[C@H](Cc2ccccc2)NC(=O)[C@H](Cc2ccc(O)cc2)NC1=O [UPAR-239, Ac-Asp-Leu-[Cys-Glu-Nle-Tyr-Phe-Pro-Ala-Ile-Leu-Cys]-NH2] (Ac-DLCE[Nle]YFPAILC-NH2; disulfide 3-12) | ≥ 8.00 |  | < 1.58 nM |
| CC[C@H](C)[C@@H]1NC(=O)[C@@H](C)NC(=O)[C@@H]2CSCN2C(=O)[C@H](Cc2ccccc2)NC(=O)[C@H](Cc2ccc(O)cc2)NC(=O)[C@H](CCC(N)=O)NC(=O)[C@H](CCCNC(N)=O)NC(=O)[C@@H](NC(=O)CCC(C)C)CSSC[C@@H](C(N)=O)NC(=O)[C@H](CC(C)C)NC1=O [UPAR-375, iHex-[Cys-Cit-Gln-Tyr-Phe-Eaz-ala-Ile-Leu-Cys]-NH2] ({Pentanoyl(4-Me)}-C[Cit]QYF[Thz][dA]ILC-NH2; disulfide 1-10) | ≥ 8.00 | < 1.58 nM |  |
| CC[C@H](C)[C@@H]1NC(=O)[C@@H]2CCCCN2C(=O)[C@@H]2CCCN2C(=O)[C@H](Cc2ccccc2)NC(=O)[C@H](Cc2ccc(O)cc2)NC(=O)[C@H](CCC(N)=O)NC(=O)[C@H](CCCNC(N)=O)NC(=O)[C@@H](NC(=O)CCC(C)C)CSSC[C@@H](C(N)=O)NC(=O)[C@H](CC(C)C)NC1=O [UPAR-469, iHex-[Cys-Cit-Gln-Tyr-Phe-Pro-Pip-Ile-Leu-Cys]-NH2] ({Pentanoyl(4-Me)}-C[Cit]QYFP[Pip]ILC-NH2; disulfide 1-10) | 7.50 to 7.90 | 1.58 to 10 nM |  |
| CC[C@H](C)[C@@H]1NC(=O)[C@@H]2C[C@@H](O)CN2C(=O)[C@@H]2CCCN2C(=O)[C@H](Cc2ccccc2)NC(=O)[C@H](Cc2ccc(O)cc2)NC(=O)[C@H](CCCCNC(=O)CN2CCN(CC(=O)O)CCN(CC(=O)O)CCN(CC(=O)O)CC2)NC(=O)[C@H](CCCNC(N)=O)NC(=O)[C@@H](NC(=O)CCC(C)C)CSSC[C@@H](C(N)=O)NC(=O)[C@H](CC(C)C)NC1=O [UPAR-240, iHex-[Cys-Cit-Lys(DOTA)-Tyr-Phe-Pro-Hyp-Ile-Leu-Cys]-NH2] ({Pentanoyl(4-Me)}-C[Cit]K(DOTA)YFP[Hyp]ILC-NH2; disulfide 1-10) | ≥ 8.00 |  | < 1.58 nM |
| CC[C@H](C)[C@@H]1NC(=O)[C@@H](C)NC(=O)[C@@H]2CCCN2C(=O)[C@H](Cc2ccccc2)NC(=O)[C@H](Cc2ccc(O)cc2)NC(=O)[C@H](CCC(N)=O)NC(=O)C(C)(C)NC(=O)[C@@H](NC(=O)CCC(C)C)CSSC[C@@H](C(N)=O)NC(=O)[C@H](CC(C)C)NC1=O [UPAR-468, iHex-[Cys-Aib-Gln-Tyr-Phe-Pro-ala-Ile-Leu-Cys]-NH2] ({Pentanoyl(4-Me)}-C[Aib]QYFP[dA]ILC-NH2; disulfide 1-10) | ≥ 8.00 | 1.58 to 10 nM |  |
| CCCCC(=O)N[C@H]1CSSC[C@@H](C(N)=O)NC(=O)[C@H](CCC)NC(=O)[C@H]([C@@H](C)CC)NC(=O)[C@@H]2C[C@@H](O)CN2C(=O)[C@@H]2CCCN2C(=O)[C@H](Cc2ccccc2)NC(=O)[C@H](Cc2ccc(S(=O)(=O)O)cc2)NC(=O)[C@H](CCCCNC(=O)CN2CCN(CC(=O)O)CCN(CC(=O)O)CCN(CC(=O)O)CC2)NC(=O)[C@H](CCCNC(N)=O)NC1=O [UPAR-209, Pent-[Cys-Cit-Lys(DOTA)-Fso-Phe-Pro-Hyp-Ile-Nva-Cys]-NH2] (Pentanoyl-C[Cit]K(DOTA)[Phe(4-SO3H)]FP[Hyp]I[Nva]C-NH2; disulfide 1-10) | ≥ 8.00 |  | 1.58 to 10 nM |
| CCNCC(=O)N[C@H]1CSSC[C@@H](C(N)=O)NC(=O)[C@H](CC(C)C)NC(=O)[C@H]([C@@H](C)CC)NC(=O)[C@@H](C)NC(=O)[C@@H]2CCCN2C(=O)[C@H](Cc2ccccc2)NC(=O)[C@H](Cc2ccc(O)cc2)NC(=O)[C@H](CCC(N)=O)NC(=O)[C@H](CCCNC(N)=O)NC1=O [UPAR-462, H-NEtg-[Cys-Cit-Gln-Tyr-Phe-Pro-ala-Ile-Leu-Cys]-NH2] (H-[NEtG]C[Cit]QYFP[dA]ILC-NH2; disulfide 2-11) | 7.00 to 7.40 | 10 to 100 nM |  |
| CC[C@H](C)[C@@H]1NC(=O)[C@@H](C)NC(=O)[C@@H]2CCCN2C(=O)[C@H](Cc2ccccc2)NC(=O)[C@H](Cc2ccc(O)cc2)NC(=O)[C@H](CCC(N)=O)NC(=O)[C@H](CCCNC(N)=O)NC(=O)[C@@H](NC(C)=O)CSSC[C@@H](C(N)=O)NC(=O)[C@H](CC(C)C)NC1=O [UPAR-243, Ac-[Cys-Cit-Gln-Tyr-Phe-Pro-ala-Ile-Leu-Cys]-NH2] (Ac-C[Cit]QYFP[dA]ILC-NH2; disulfide 1-10) | ≤ 6.90 |  | > 100 nM |

From patent EP4610269A1, “UROKINASE PLASMINOGEN ACTIVATOR SURFACE RECEPTOR (UPAR) LIGANDS FOR DIAGNOSTIC OR THERAPEUTIC USE” (3B Pharmaceuticals GmbH, priority 2024, dated 2025)
